Measured values: patent publication US11958828B1, “4,5-bis(4-bromophenyl)-1-hexyl-2-(3-pyridyl)-1H-imidazole as an antimicrobial compound” (KING FAISAL UNIVERSITY, priority 2023, dated 2024)

What was measured:
Format in all cases: cell-based
Settings in all cases: after 10, 20, 40 and 60 min at all dilutions 1:100, 1:200, 1:400, 1:800
Staphylococcus aureus = experiment: Antimicrobial testing by agar dilution, Staphylococcus aureus
Procedure: (§1) The antimicrobial properties of the 4,5-bis(4-bromophenyl)-1-hexyl-2-(3-Pyridyl)-1H-imidazole (5) were studied by the method of agar dilution. Test solutions of each compound were prepared in concentration of 1% using dimethylformamide as a solvent then they are diluted in physiological solution to obtain the final experimental dilutions 1:100, 1:200, 1:400, 1:800. The effect of these substances were compared with furacillin in a controllable study. The testing microbes used were gram positive bacteria Staphylococcus aureus, gram negative bacteria Escherichia coli, Pseudomonas aeruginosa and Candida albicans fungi were taken. The experiments used for this survey were meat-pentonlu agar (EPA) for cultivation of bacteria and Saburo environment for fungi. Each experiment used 1 ml of test solution on each plate 500 min. Add 2 drops of emulsified with microbes feel. All experimental samples were taken from the agar after 10, 20, 40, 60 minutes in the environment on the basis of Patrk planted. Bacteria were cultivated at a temperature of 37° C. for 1 day and the mushroom was kept in a thermostat for […] at a temperature of 28° C. in the. Then results were checked.

Candida albicans = experiment: Antimicrobial testing by agar dilution, Candida albicans
Procedure: as §1

Escherichia coli = experiment: Antimicrobial testing by agar dilution, Escherichia coli
Procedure: as §1

Pseudomonas aeruginosa = experiment: Antimicrobial testing by agar dilution, Pseudomonas aeruginosa
Procedure: as §1

Measured: inhibition activity (in words)

CCCCCCn1c(-c2cccnc2)nc(-c2ccc(Br)cc2)c1-c1ccc(Br)cc1 [4,5-bis(4-bromophenyl)-1-hexyl-2-(3-pyridyl)-1H-imidazole]
highest inhibition activity: all assays above
